Measured values reported in patent US20240200118A1, “COMPOSITIONS AND METHODS FOR OPTIMIZING TROPISM OF DELIVERY SYSTEMS FOR RNA” (Renagade Therapeutics Management Inc., priority 2021, published 2024).

Assay: In vivo biodistribution of co-delivered barcoded LNPs by Next Generation Sequencing of barcodes in tissues
Parameters: species or system BALB/c mice
Details: liver, kidney, lung, heart and brain; tail vein, 0.01 mg/kg per barcoded payload; compared with formulations using Lipids 1 and 3
Experimental: LNP/barcode complexes were prepared as described in Example 5. LNP/Barcode complex formulations were made by mixing different LNP/Barcode complex formulations together in equal parts (unless otherwise noted), to form Study Groups 1 and 2. Study Group 1 was dosed with a complex formulation that included formulations F-1, F-2, F-3, F-4, F-5, F-6, F-7, F-8 and F-16 in equal parts. Study Group 2 was dosed with a complex formulation that included formulations F-9, F-10, F-11, F-12, F-13, F-14, F-15, F-16 and F-17 in equal parts, except for F-10 which was mixed at 1/10th the concentration. BALB/c mice were injected via tail vein with 0.01 mg/kg (per unique barcoded payload, except for oRNA2A in F-10, which was dosed at 0.001 mg/kg) for each of Study Groups 1 and 2 in a total volume of 5 mL/kg. Each Study Group was dosed in 6 mice, and an additional 3 mice were dosed with PBS control. At 6 hr post injection, 3 animals from Study Group 1 were humanely euthanized by CO2 inhalation and organs including liver, spleen, lung, heart, kidney, brain, and blood were collected and snap frozen using liquid nitrogen. […] BLI images were detected in the auto-exposure mode. The BLI signal was quantitated using Living Image 4.7 software (Perkin Elmer) following the manufacturer's instruction. After BLI analysis the weights of the collected organs was measured. […]

## CCCCCCCCCCCCCCCCCC[N+](C)(CCCCCCCCCCCCCCCCCC)CCNC(=N)N.[Cl-] [Lipid 2]
  delivery to organs (barcode ratios normalized to the input material): superior delivery in most organs tested
